The values below come from patent US11384381B2, “Reaction accelerating agent” (Kikkoman Corporation, priority 2016, dated 2022).

Assay [1] relates to CFP-DH4 (A1cOX). The experiment in a line: Acceleration of HbA1c detection reaction with small amount of A1cOX (Example 5). The format is biochemical. The settings on record: HbA1c detection reaction, ΔA/ΔA100%, 0.04% (w/v) compound, 1.1 mg/ml CFP-DH4. Here is the method:
Next, in this Example, the degree of acceleration of HbA1c detection reaction by the compound of the present invention was determined using a small amount of A1cOX.
A reagent for HbA1c measurement having the following composition was prepared, and the measurement of HbA1c was carried out using Bio Majesty JCA-BM1650 (manufactured by JEOL Ltd.).
(§1) Blood cells (10.4% HbA1c (NGSP value))
(§2) 30 mM MOPS-NaOH buffer solution, pH 6.5
0.2% (w/v) n-dodecyl-3-D-maltoside (manufactured by Dojindo Laboratories)
(§3) 10 U/ml peroxidase PEO-301 (Toyobo Co., Ltd.)
(§4) 0.023 mM 10-(carboxymethylaminocarbonyl)-3,7-bis(dimethylamino)phenothiazine sodium (DA-67, manufactured by Wako Pure Chemical Industries, Ltd.)
0.04% (w/v) of the compound of Comparative Example 2, any one compound of the present invention, or compound-free (Comparative Example 1) ion-exchange water as shown in Table 2
10 mM MOPS-NaOH buffer solution, pH 6.5
1.1 mg/ml CFP-DH4 (A cOX)
8 μl of the sample diluted 51-fold with ion-exchange water was added to 96 μl of the first reagent, and the mixture was incubated at 37° C. for 5 minutes. Then, 24 μl of the second reagent-B was added thereto, and the quantitative reaction of hydrogen peroxide resulting from the oxidation of the β-chain amino terminus of HbA1c was allowed to progress at 37° C. for 5 minutes. The absorbance ([…] and A751) of the reaction solution for light at wavelengths of 694 nm and 751 nm was measured over time for 10 minutes after the mixing of the diluted sample with the first reagent to determine the value of subtraction of A751 from A694, i.e., the value A694/751. Subsequently, ΔA was calculated by subtracting, from A694/751, the value of (104/128) times A694/751 4.8 minutes after the mixing of the diluted sample with the first reagent. Incidentally, […] after the mixing of the diluted sample with the first reagent represents the time immediately before the addition of the second reagent-B.
Next, ΔA calculated in this Example was divided by ΔA100% defined in Example 4 to calculate the degree of progression of HbA1c detection reaction. The degree of progression of HbA1c detection reaction 7.5 and 10 minutes after the mixing of the diluted sample with the first reagent (in other words, 2.5 and 5 minutes after the addition of the second reagent-B) is shown in Table 2.

Assay [2] relates to CFP-DH4 (A1cOX). The experiment in a line: HbA1c detection reaction completed with excess A1cOX (Example 4). Type of assay: biochemical. The settings on record: 0.04% (w/v) compound, 5.3 mg/ml CFP-DH4 (excess), blood cells 10.4% HbA1c, pH 6.5, 37° C. As for the experimental part: In this Example, the amount of change in absorbance when an excess amount of A1cOX is used and HbA1c detection reaction was completed is determined.
A reagent for HbA1c measurement having the following composition was prepared, and the measurement of HbA1c was carried out using Bio Majesty JCA-BMI650 (manufactured by JEOL Ltd.).
as §1, §2
0.2% (w/v) n-dodecyl-β-D-maltoside (manufactured by Dojindo Laboratories)
as §3, §4
0.04% (w/v) of the compound of Comparative Example 2 (Wako Pure Chemical Industries, Ltd.), any one compound of the present invention (all from Tokyo Chemical Industry Co., Ltd. except for Acid Yellow 34 from MP Biomedicals, LLC), or compound-free (Comparative Example 1) ion-exchange water as shown in Table 1 (Second Reagent-A) 10 mM MOPS-NaOH buffer solution, pH 6.5 5.3 mg/ml CFP-DH4 (A cOX)
8 μl of the sample diluted 51-fold with ion-exchange water was added to 96 μl of the first reagent-A, and the mixture was incubated at 37° C. for 5 minutes. Then, 24 μl of the second reagent-A was added thereto, and the quantitative reaction of hydrogen peroxide resulting from the oxidation of the β-chain amino terminus of HbA1c was allowed to progress at 37° C. for 5 minutes. The absorbance (A694 and A751) of the reaction solution for light at wavelengths of 694 nm and 751 nm was measured over time for 10 minutes after the mixing of the diluted sample with the first reagent-A to determine the value subtracting of A751 from A694, i.e., the value A694/751. Subsequently, ΔA was calculated by subtracting, from A694/751, the value of (104/128) times A694/751 4.8 minutes after mixing the diluted sample with the first reagent-A. Incidentally, 4.8 minutes after the mixing of the diluted sample with the first reagent-A represents the time immediately before the addition of the second reagent-A. ΔA 9 minutes and 10 minutes after the mixing of the diluted sample with the first reagent (ΔA9min and ΔA10min) are shown in Table 1.
In other words, it can be recognized that the quantitative reaction of HbA1c, i.e., the quantitative reaction of hydrogen peroxide resulting from the oxidation of HbA1c, was completed in 10 minutes after the mixing of the diluted sample with the first reagent-A. Accordingly, in Examples 4 and 5, ΔA10min in each Comparative Example or the present invention was defined as ΔA when 100% of the quantitative reaction of HbA1c progressed under each condition (ΔA100%).

For the molecule `O=C([O-])C1=NN(c2ccc(S(=O)(=O)[O-])cc2)C(=O)C1N=Nc1ccc(S(=O)(=O)[O-])cc1.[Na+].[Na+].[Na+]` (stereo not shown) [Tartrazine, reference compound], the “Degree of progression of reaction (%) after 7.5 minutes” value in assay [1] (2.5 minutes after addition of second reagent, not added: 51) is reported as 38%. Besides, the “Degree of progression of reaction (%) after 10 minutes” value in assay [1] (5 minutes after addition of second reagent, not added: 73) amounted to 62%. The same molecule returned a ΔA9 min in assay [2] (change in A694-A751 9 minutes after mixing sample with first reagent) of 0.032. In assay [2] (change in A694-A751 10 minutes after mixing sample with first reagent, defined as ΔA100%), the ΔA10 min amounted to 0.032.
